Test system: HN5 cells
Assay: Rescue experiment: antibody pre-incubated with GPR87 N-terminal peptide
Type: cell-based, human
Conditions: 50 ug/ml antibody, increasing amounts of peptide, Fig. 7B
Experimental: Antibody targeting of hGPR87 on living cells is performed as follows: For antibody applications on living HN5 cells, a rabbit anti-hGPR87, directed against the N-terminus of hGPR87 (Novus Biologicals) is used (in Fig. 7A: N-term). HN5 cells are seeded (75000/6-well and 3000/96-well) the day prior to the antibody treatment. The antibody is used at a concentration of 50 ug/ml in medium without serum. 48 h after antibody addition the cells are either lysed for western blot analysis or analysed by AlamarBlue staining. Briefly, 10 ul of AlamarBlue reagent (Biosource, Camarillo USA/CA) are added to 100 ul medium and incubated until a change in color can be recognized (~6 hours). As a control, 50ug/ml antibody targeting C-terminal domain of human GPR87 is used (in Fig. 7A: C-term). Since antibodies are dissolved in PBS containing 0.01 %sodium azide, 0.01% sodium azide in PBS is added to the cells as a control to exclude toxic side effects (SA ctrl in Fig. 7A).
To determine the specificity of the anti-GPR87 antibody recognizing the N-terminus, in a so-called "rescue experiment", a peptide covering the first 46 amino acids of SEQ ID NO:2, is added. (The amounts used are 50 ug/ml of antibody and increasing amounts of GPR87 N-terminal peptide). […] The reversibility of the effects (proliferation and viability) correlates with the concentration of the blocking peptide (Fig. 7B).

## GPR87 N-terminal peptide: a peptide covering the first 46 amino acids of SEQ ID NO:2 (MGFNLTLAKLPNNELHGQESHNSGNRSDGPGKNTTLHNEFDTIVLP)
  reversal of the pro-apoptotic, anti-proliferative effect of the antibody: can be reversed
